What is called pIC50 is −log10 of the IC50, conventionally taken in molar units. A lower pIC50 goes with a large IC50.

Each structure is given as a SMILES string. pIC50: −log10 of the molar value.

Chain of wt human LRRK2, catalytic site (Q5S007 1879-2138): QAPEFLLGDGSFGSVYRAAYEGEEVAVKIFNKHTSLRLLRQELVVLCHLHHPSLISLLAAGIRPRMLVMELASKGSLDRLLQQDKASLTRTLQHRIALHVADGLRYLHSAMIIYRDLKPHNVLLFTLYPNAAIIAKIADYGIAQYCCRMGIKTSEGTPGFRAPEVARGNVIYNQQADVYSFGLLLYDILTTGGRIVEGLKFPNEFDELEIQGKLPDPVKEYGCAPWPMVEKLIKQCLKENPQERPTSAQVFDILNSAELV

The assay concerns the target wt human LRRK2, catalytic site (Homo sapiens (Human), UniProt Q5S007). In words: TR-FRET LanthaScreen Tb Kinase Activity Assay (LRRK2 kinase inhibition). It is filed as biochemical. The note with it: 2 nM wt human LRRK2, 400 nM fluorescein-ERM (LRRKtide) peptide, 38 μM ATP, 120 minutes at room temperature. In outline:
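LanthaScreen TR-FRET with 2 nM wt human LRRK2 catalytic site, 400 nM fluorescein-ERM (LRRKtide) peptide and 38 µM ATP in Kinase Buffer A; 120 min at room temperature. Phosphorylation detected with EDTA and Tb-anti-pLRRKtide after 60 min; IC50 from emission ratios.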
Background: In TR-FRET formats the signal depends on donor and acceptor labels being close together.
`CNc1nc(Nc2c(OC)ccc3nn(C)cc23)ncc1C(F)(F)F` [Example 40, N2-(5-methoxy-2-methyl-2H-indazol-4-yl)-N-methyl-5-(trifluoromethyl) pyrimidine-2,4-diamine]: the pIC50 was at most 6.70.
The molecule `CNc1nc(Nc2cnn3ccc(C#N)cc23)ncc1C(F)(F)F` [Example 118, 3-[[4-(methylamino)-5-(trifluoromethyl)pyrimidin-2-yl]amino]pyrazolo[1,5-a]pyridine-5-carbonitrile] gave a negative logarithm of the IC50 (pIC50) above 7.30.
In turn, `CNc1nc(Nc2ccc3c(cnn3C)c2)ncc1C(F)(F)F` [Example 73, N4-methyl-N2-(1-methyl-1H-indazol-5-yl)-5-(trifluoromethyl)pyrimidine-2,4-diamine] gave a negative logarithm of the IC50 (pIC50) above 7.30.
Regarding `CNc1nc(Nc2cccc3nncn23)ncc1C(F)(F)F` [Example 124, N^4-methyl-N^2-([1,2,4]triazolo[4,3-a]pyridin-5-yl)-5-(trifluoromethyl) pyrimidine-2,4-diamine], the pIC50 was at most 6.70.
The molecule `CNc1nc(Nc2cccc3c2cnn3S(C)(=O)=O)ncc1C(F)(F)F` [Example 101] gave a negative-log IC50 (pIC50) above 7.30.
In the case of `CNc1nc(Nc2c(C)[nH]c3c(C#N)cccc23)ncc1C(F)(F)F` [Example 66, 2-methyl-3-((4-(methylamino)-5-(trifluoromethyl)pyrimidin-2-yl)amino)-1H-indole-7-carbonitrile] it was 6.70 to 7.30.
`CCNc1nc(Nc2ccc(F)c3c2cnn3CC(C)(C)O)nc2[nH]nc(Cl)c12` [Example 181, 1-(4-((3-chloro-4-(ethylamino)-1H-pyrazolo[3,4-d]pyrimidin-6-yl)amino)-7-fluoro-1H-indazol-1-yl)-2-methylpropan-2-ol] showed a pIC50 above 7.30.
As to `CCNc1nc(Nc2cccc3c2cnn3CC(C)(C)O)nc2[nH]cc(Cl)c12` [Example 176, 1-[4-[[5-chloro-4-(ethylamino)-7H-pyrrolo[2,3-d]pyrimidin-2-yl]amino]indazol-1-yl]-2-methyl-propan-2-ol], the negative logarithm of the IC50 (pIC50) is above 7.30.
To `CNc1nc(Nc2cccc3c2cnn3CCS(C)(=O)=O)ncc1C(F)(F)F` [Example 188, N^4-methyl-N^2-[1-(2-methylsulfonylethyl)indazol-4-yl]-5-(trifluoromethyl) pyrimidine-2,4-diamine] belongs above 7.30; to `CS(=O)(=O)n1ncc2c(Nc3ncc(C(F)(F)F)c(NC4CC4)n3)cccc21` [Example 102, N4-cyclopropyl-N2-(1-(methylsulfonyl)-1H-indazol-4-yl)-5-(trifluoromethyl)pyrimidine-2,4-diamine], above 7.30; to `CNc1nc(Nc2ccc3c(Br)nn(C)c3c2)ncc1C(F)(F)F` [Example 10, N^2-(3-bromo-1-methyl-1H-indazol-6-yl)-N^4-methyl-5-(trifluoromethyl) pyrimidine-2,4-diamine], above 7.30.
`CC(C)(C#N)n1ncc2c(Nc3ncc(C(F)(F)F)c(NC4CC4)n3)ccnc21` [Example 189, 2-(4-((4-(cyclopropylamino)-5-(trifluoromethyl)pyrimidin-2-yl)amino)-1H-pyrazolo[3,4-b]pyridin-yl)-2-methylpropanenitrile] showed a pIC50 above 7.30.
Regarding `CNc1nc(Nc2ccc(C(C)CC(=O)N3CCOCC3)c3c2cnn3C)ncc1C(F)(F)F` (stereo not shown) [Example 60, 3-(1-methyl-4-((4-(methylamino)-5-(trifluoromethyl)pyrimidin-2-yl)amino)-1H-indazol-7-yl)-1-morpholinobutan-1-one], the pIC50 is above 7.30.
The molecule `CCOc1nc(Nc2cccc3c2cnn3CC(F)F)nc2[nH]cc(Cl)c12` [Example 165, 5-chloro-N-[1-(2,2-difluoroethyl)indazol-4-yl]-4-ethoxy-7H-pyrrolo[2,3-d]pyrimidin-2-amine] had a negative-log IC50 (pIC50) above 7.30.
As for `CNc1nc(Nc2ccc(/C=C/C(=O)N3CCOCC3)c3[nH]ncc23)ncc1C(F)(F)F` [Example 56, (E)-3-(4-((4-(methylamino)-5-(trifluoromethyl)pyrimidin-2-yl)amino)-1H-indazol-7-yl)-1-morpholinoprop-2-en-1-one], the pIC50 is above 7.30.
With `CCOc1nc(Nc2cccc3c2cnn3S(C)(=O)=O)nc2[nH]cc(Cl)c12` [Example 158, 5-chloro-4-ethoxy-N-(1-methylsulfonylindazol-4-yl)-7H-pyrrolo [2,3-d]pyrimidin-2-amine], the negative logarithm of the IC50 (pIC50) was above 7.30.
In turn, `CNc1nc(Nc2cc(Cl)cc3c2cnn3CC#N)ncc1C(F)(F)F` [Example 92, 2-(6-chloro-4-((4-(methylamino)-5-(trifluoromethyl)pyrimidin-2-yl)amino)-1H-indazol-1-yl)acetonitrile] showed a negative-log IC50 (pIC50) above 7.30.
To `CNc1nc(Nc2cccc3c2cnn3C)ncc1Cl` [Example 79, 5-chloro-N4-methyl-N2-(1-methyl-1H-indazol-4-yl)pyrimidine-2,4-diamine] belongs above 7.30; to `CC1(Nc2nc(Nc3cccc4c3cnn4CC#N)ncc2C(F)(F)F)CC1` [Example 105, 2-(4-((4-((1-methylcyclopropyl)amino)-5-(trifluoromethyl)pyrimidin-2-yl)amino)-1H-indazol-1-yl)acetonitrile], above 7.30; to `CNc1nc(Nc2ccc3c(C#N)n[nH]c3c2)ncc1C(F)(F)F` [Example 8, 6-((4-(methylamino)-5-(trifluoromethyl)pyrimidin-2-yl)amino)-1H-indazole-3-carbonitrile], at most 6.70.
To `CNc1nc(Nc2cc(C(F)(F)F)cc3c2cnn3CC#N)ncc1C(F)(F)F` [Example 90, 2-(4-((4-(methylamino)-5-(trifluoromethyl)pyrimidin-2-yl)amino)-6-(trifluoromethyl)-1H-indazol-1-yl)acetonitrile] belongs above 7.30; to `CNc1nc(Nc2cc3[nH]ncc3cc2Cl)ncc1C(F)(F)F` [Example 116], above 7.30.
For `CC(C)(O)Cn1ncc2c(Nc3ncc(C(F)(F)F)c(NC4CC4)n3)cccc21` [Example 146, 1-[4-[[4-(cyclopropylamino)-5-(trifluoromethyl)pyrimidin-2-yl]amino]indazol-1-yl]-2-methyl-propan-2-ol], the negative-log IC50 (pIC50) was above 7.30.
`CS(=O)(=O)n1ncc2c(Nc3ncc(C(F)(F)F)c(NC4CCC4)n3)cccc21` [Example 150, N^4-cyclobutyl-N^2-(1-methylsulfonylindazol-4-yl)-5-(trifluoromethyl)pyrimidine-2,4-diamine] gave a negative-log IC50 (pIC50) above 7.30.
To `CC(C)(O)Cn1ncc2c(Nc3ncc(C(F)(F)F)c(NC4CC4)n3)ccc(F)c21` [Example 172, 1-(4-((4-(cyclopropylamino)-5-(trifluoromethyl)pyrimidin-2-yl)amino)-7-fluoro-1H-indazol-1-yl)-2-methylpropan-2-ol] belongs above 7.30; to `CNc1nc(Nc2cccc3[nH]ncc23)ncc1C(F)(F)F` [Example 21, N2-(1H-indazol-4-yl)-N4-methyl-5-(trifluoromethyl)pyrimidine-2,4-diamine], above 7.30; to `CNc1nc(Nc2ccc3c(Br)n[nH]c3c2)ncc1C(F)(F)F` [Example 7, N2-(3-bromo-1H-indazol-6-yl)-N4-methyl-5-(trifluoromethyl)pyrimidine-2,4-diamine], above 7.30.
As for `CS(=O)(=O)CCn1ncc2c(Nc3ncc(C(F)(F)F)c(NC4CC4)n3)ccc(F)c21` [Example 177, N^4-cyclopropyl-N^2-[7-fluoro-1-(2-methylsulfonylethyl)indazol-4-yl]-5-(trifluoromethyl)pyrimidine-2,4-diamine], the pIC50 was above 7.30.
In the case of `CNc1nc(Nc2ccc(OC)c3nn(C)cc23)ncc1C(F)(F)F` [Example 35, N2-(7-methoxy-2-methyl-2H-indazol-4-yl)-N4-methyl-5-(trifluoromethyl) pyrimidine-2,4-diamine] it was above 7.30; in that of `CNc1nc(Nc2ccnc3ccnn23)ncc1C(F)(F)F` [Example 115, N^4-methyl-N^2-pyrazolo[1,5-a]pyrimidin-7-yl-5-(trifluoromethyl)pyrimidine-2,4-diamine], at most 6.70; in that of `CNc1nc(Nc2ccc3cnn(C)c3c2C)ncc1C(F)(F)F` [Example 15, N2-(1,7-dimethyl-1H-indazol-6-yl)-N4-methyl-S-(trifluoromethyl)pyrimidine-2,4-diamine], 6.70 to 7.30.
In the case of `CNc1nc(Nc2ccc(C3=CCOCC3)c3c2cnn3CC#N)ncc1C(F)(F)F` [Example 83, 2-(7-(3,6-dihydro-2H-pyran-4-yl)-4-((4-(methylamino)-5-(trifluoromethyl)pyrimidin-2-yl)amino)-1H-indazol-1-yl)acetonitrile] it was above 7.30; in that of `FC(F)(F)c1cnc(Nc2cccc3c2cnn3CCN2CCOCC2)nc1NC1CC1` [Example 193, N^4-cyclopropyl-N^2-(1-(2-morpholinoethyl)-1H-indazol-4-yl)-5-(trifluoromethyl)pyrimidine-2,4-diamine], above 7.30; in that of `CNc1nc(Nc2ccc(OC)c3c2cnn3C)ncc1C(F)(F)F` [Example 47, N2-(7-methoxy-1-methyl-1H-indazol-4-yl)-N4-methyl-5-(trifluoromethyl) pyrimidine-2,4-diamine], above 7.30.
Turning to `CNc1nc(Nc2ccc(C3CCN(C)CC3)c3c2cnn3CC#N)ncc1C(F)(F)F` [Example 109, 2-(4-((4-(methylamino)-5-(trifluoromethyl)pyrimidin-2-yl)amino)-7-(1-methylpiperidin-4-yl)-1H-indazol-1-yl)acetonitrile], the negative logarithm of the IC50 (pIC50) was above 7.30.
For `CCNc1nc(Nc2cccc3c2cnn3CCS(C)(=O)=O)ncc1C(F)(F)F` [Example 186, N^4-ethyl-N^2-[1-(2-methylsulfonylethyl)indazol-4-yl]-5-(trifluoromethyl) pyrimidine-2,4-diamine], the pIC50 was above 7.30.
The molecule `CNc1nc(Nc2ccc3cn[nH]c3c2OC)ncc1C(F)(F)F` [Example 4, N2-(7-methoxy-1H-indazol-6-yl)-N4-methyl-5-(trifluoromethyl)pyrimidine-2,4-diamine] gave a pIC50 of 6.70 to 7.30.

For the origin of these results see US20240174647A1 (NEURON23, INC., priority 2022, published 2024).
